# From US20140242590A1, “FLT3 MUTATIONS ASSOCIATED WITH DRUG RESISTANCE IN AML PATIENTS HAVING ACTIVATING MUTATIONS IN FLT3” (THE REGENTS OF THE UNIVERSITY OF CALIFORNIA, priority 2011, published 2014)
# What was measured:
# FLT3-ITD mutant isoforms = assay: Immunoblotting with anti-phospho-FLT3 / anti-FLT3 on Ba/F3 lysates (cell-based biochemical assay); settings: five AC220-resistant FLT3-ITD substitutions; 90 minutes exposure
# Description: Exponentially growing Ba/F3 cells stably expressing each mutant along with a WT FLT3-ITD control were plated in RPMI medium 1640+10% FCS supplemented with kinase inhibitor at the indicated concentration. After a 90-minute incubation, the cells were washed in phosphate buffered saline (PBS) and lysed in Cell Extraction Buffer (Invitrogen) supplemented with protease and phosphatase inhibitors. The lysate was clarified by centrifugation and quantitated by BCA assay (Thermo Scientific). Protein was subjected to sodium dodecylsulfate polyacrylamide electrophoresis and transferred to nitrocellulose membranes. Immunoblotting was performed using anti-phospho-FLT3 (Cell Signaling) and anti-FLT3 S18 antibody (Santa Cruz Biotechnology).
# [1] = system: Ba/F3 cells expressing FLT3-ITD mutant isoforms; assay: Cell-viability assay of Ba/F3 populations stably expressing FLT3-ITD mutant isoforms; format: cell-based; settings: 48 hours
# Description: Stable Ba/F3 lines were generated by using retroviral spinfection with the appropriate mutated plasmid as outlined above, with the exception of the exclusion of polybrene. At 48 h post-infection, puromycin was added to infected cells at a concentration of 4 μg/mL. Cells were selected in the presence of puromycin for 7-10 days and subsequently IL-3 was washed twice from the cells with media and cells were selected in RPMI medium 1640+10% FCS in the absence of IL-3. Exponentially growing BaiF3 cells (5×10^4) were plated in each well of a 24-well dish with 1 ml of RPMI 1640+10% FCS containing the appropriate concentration of drug as indicated in triplicate. Cells were allowed to expand for 2 days and were counted by using a Vi-cell XR automated cell viability analyzer (Beckman Coulter). The mean number of viable cells at varying concentrations of drug was normalized to the median number of viable cells in the no-drug sample for each mutant. Error bars represent the standard deviation. Numerical IC50 values were generated using non-linear best-fit regression analysis using Prism 5 software (GraphPad).
# [2] = system: Ba/F3 cells expressing FLT3-ITD mutant isoforms; settings: literature report (ref 18); cited from earlier work
compound,measurement,setting,value
CNC(=O)c1cc(Oc2ccc(NC(=O)Nc3ccc(Cl)c(C(F)(F)F)c3)cc2)ccn1 [sorafenib],cross-resistance of AC220-resistant mutations in biochemical assay (phospho-FLT3),FLT3-ITD mutant isoforms,substantial cross-resistance
same,resistance conferred by D835F mutation in vitro,[1]; FLT3-ITD/D835F vs FLT3-ITD,cross-resistance
same,cross-resistance of AC220-resistant mutations in cell-based growth assay,[1]; five AC220-resistant FLT3-ITD substitutions,substantial cross-resistance
same,"sensitivity of FLT3-ITD/D835V in vitro, previously reported",[2],retain sensitivity
